The supplement of paper PMC12819154, “High-throughput peptide-centric local stability assay extends protein–ligand identification to membrane proteins, tissues and bacteria” (Nature Structural & Molecular Biology, 2025)

Key:
Experiment in all cases: pEC50 of peptide local stability change
[1] = target: UniProt P07604; conditions: peptide sequence: YAWPGNVR; direction: stabilized; replicate design: treated separately
Method in brief: (§1)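 Each tabulated entry is a mean pEC50 taken across replicates. Four 50 µl replicates of desalted, MgCl2-supplemented E. coli K-12 BW25113 lysate (1.2 mg ml^−1) were exposed to ATP at seven doses from 10 µM to 10 mM, or to water, for 30 min at 25 °C, then trypsin-digested for 4 min at 22 °C and analysed by DIA LC–MS/MS. Treated/control peptide ratios from every replicate were fitted to a four-parameter log-logistic model, and an entry was kept only if fit R^2 exceeded 0.9 in at least three replicates and the coefficient of variation of the estimate was at most 0.25.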

[2] = target: UniProt P25888; conditions: peptide sequence: DLMASAQTGTGK; direction: stabilized; replicate design: treated separately
Method in brief: as §1

[3] = target: UniProt P37903; conditions: peptide sequence: KFKLPTDR; direction: stabilized; replicate design: treated separately
Method in brief: as §1

[4] = target: UniProt P0AFU4; conditions: peptide sequence: LMTASWPGNVR; direction: stabilized; replicate design: treated separately
Method in brief: as §1

[5] = target: UniProt P31548; conditions: peptide sequence: LPGELSGGQR; direction: stabilized; replicate design: treated separately
Method in brief: as §1

[6] = target: UniProt P76419; conditions: peptide sequence: GGDCAPTREELLLAHK; direction: stabilized; replicate design: treated separately
Method in brief: as §1

[7] = target: UniProt P24182; conditions: peptide sequence: LMGDKVSAIAAMKK; direction: stabilized; replicate design: treated separately
Method in brief: as §1

[8] = target: UniProt P03018; conditions: peptide sequence: EVYHRPSR; direction: stabilized; replicate design: treated separately
Method in brief: as §1

[9] = target: UniProt P37634; conditions: peptide sequence: HTVQSLIIESLKEK; direction: stabilized; replicate design: treated separately
Method in brief: as §1

[10] = target: UniProt P0A9P6; conditions: peptide sequence: DVLGMAQTGSGK; direction: stabilized; replicate design: treated separately
Method in brief: as §1

[11] = target: UniProt P24193; conditions: peptide sequence: DAALIGEVVERK; direction: stabilized; replicate design: treated separately
Method in brief: as §1

[12] = target: UniProt P00582; conditions: peptide sequence: LYLPDIK; direction: stabilized; replicate design: treated separately
Method in brief: as §1

[13] = target: UniProt P13000; conditions: peptide sequence: TVASCALLQAAK; direction: stabilized; replicate design: treated separately
Method in brief: as §1

[14] = target: UniProt P05707; conditions: peptide sequence: VGSKHNSGYSAAK; direction: stabilized; replicate design: treated separately
Method in brief: as §1

[15] = target: UniProt P00954; conditions: peptide sequence: FRNDEAFLQQVMK; direction: stabilized; replicate design: treated separately
Method in brief: as §1

[16] = target: UniProt P21507; conditions: peptide sequence: DVLGSAPTGTGK; direction: stabilized; replicate design: treated separately
Method in brief: as §1

[17] = target: UniProt P23837; conditions: peptide sequence: VDTLRPGQGVGLAVAR; direction: stabilized; replicate design: treated separately
Method in brief: as §1

[18] = target: UniProt P23830; conditions: peptide sequence: EALGVLHFK; direction: stabilized; replicate design: treated separately
Method in brief: as §1

[19] = target: MurD (UniProt P14900); conditions: peptide sequence: YLNGDNVR; direction: stabilized; replicate design: treated separately
Method in brief: as §1

[20] = target: UniProt P0ACL0; conditions: peptide sequence: HVMLVVDHSK; direction: stabilized; replicate design: treated separately
Method in brief: as §1

[21] = target: UniProt P31142; conditions: peptide sequence: FNAEVDEPRPGLR; direction: stabilized; replicate design: treated separately
Method in brief: as §1

[22] = target: UniProt P45395; conditions: peptide sequence: VNDIMHTGDEIPHVKK; direction: stabilized; replicate design: treated separately
Method in brief: as §1

[23] = target: UniProt P09980; conditions: peptide sequence: DYAILYR; direction: stabilized; replicate design: treated separately
Method in brief: as §1

[24] = target: UniProt P0AAB8; conditions: peptide sequence: EQCDLLVCGHHHSFINR; direction: stabilized; replicate design: treated separately
Method in brief: as §1

[25] = target: UniProt P27296; conditions: peptide sequence: AQIAAWYK; direction: stabilized; replicate design: treated separately
Method in brief: as §1

[26] = target: UniProt P15640; conditions: peptide sequence: VIEFNCR; direction: stabilized; replicate design: treated separately
Method in brief: as §1

[27] = target: UniProt P30176; conditions: peptide sequence: AKFEQHAELR; direction: stabilized; replicate design: treated separately
Method in brief: as §1

[28] = target: UniProt P14081; conditions: peptide sequence: LFITAATEGR; direction: stabilized; replicate design: treated separately
Method in brief: as §1

[29] = target: UniProt P37440; conditions: peptide sequence: CTAVVADVR; direction: stabilized; replicate design: treated separately
Method in brief: as §1

[30] = target: MurF (UniProt P11880); conditions: peptide sequence: KLTPGCLFVALKGER; direction: stabilized; replicate design: treated separately
Method in brief: as §1

[31] = target: UniProt P37647; conditions: peptide sequence: GHLTASTVIQYR; direction: stabilized; replicate design: treated separately
Method in brief: as §1

Chain of UniProt P23837 (P23837 whole entry): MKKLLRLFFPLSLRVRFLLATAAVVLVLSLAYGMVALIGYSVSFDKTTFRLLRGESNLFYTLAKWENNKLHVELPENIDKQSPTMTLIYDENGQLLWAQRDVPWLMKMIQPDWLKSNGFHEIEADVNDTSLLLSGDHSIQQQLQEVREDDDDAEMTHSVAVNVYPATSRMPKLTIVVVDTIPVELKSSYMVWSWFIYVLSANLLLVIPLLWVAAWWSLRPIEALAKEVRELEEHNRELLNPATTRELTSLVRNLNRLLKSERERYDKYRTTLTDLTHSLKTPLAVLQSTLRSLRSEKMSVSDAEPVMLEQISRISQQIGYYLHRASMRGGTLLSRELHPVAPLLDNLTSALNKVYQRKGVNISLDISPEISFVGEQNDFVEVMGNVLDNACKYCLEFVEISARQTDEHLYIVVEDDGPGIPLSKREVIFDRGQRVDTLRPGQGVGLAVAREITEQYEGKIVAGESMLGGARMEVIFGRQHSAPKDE
Chain of UniProt P14081 (P14081 whole entry): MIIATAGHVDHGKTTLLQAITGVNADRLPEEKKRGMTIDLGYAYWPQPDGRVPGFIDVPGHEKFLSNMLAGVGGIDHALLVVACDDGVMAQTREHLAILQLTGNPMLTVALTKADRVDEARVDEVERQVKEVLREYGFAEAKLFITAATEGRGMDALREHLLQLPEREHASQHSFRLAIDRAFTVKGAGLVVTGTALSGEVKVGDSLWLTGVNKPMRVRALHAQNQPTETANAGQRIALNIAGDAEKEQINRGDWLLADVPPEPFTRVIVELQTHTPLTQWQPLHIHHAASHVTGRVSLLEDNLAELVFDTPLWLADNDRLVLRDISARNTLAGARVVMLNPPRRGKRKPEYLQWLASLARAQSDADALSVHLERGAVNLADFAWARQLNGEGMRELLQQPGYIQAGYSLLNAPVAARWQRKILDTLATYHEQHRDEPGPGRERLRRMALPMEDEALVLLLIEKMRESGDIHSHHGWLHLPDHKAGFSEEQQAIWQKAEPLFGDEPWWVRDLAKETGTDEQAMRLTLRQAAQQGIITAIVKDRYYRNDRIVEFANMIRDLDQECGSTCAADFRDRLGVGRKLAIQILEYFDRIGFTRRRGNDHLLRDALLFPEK
Chain of UniProt P13000 (P13000 whole entry): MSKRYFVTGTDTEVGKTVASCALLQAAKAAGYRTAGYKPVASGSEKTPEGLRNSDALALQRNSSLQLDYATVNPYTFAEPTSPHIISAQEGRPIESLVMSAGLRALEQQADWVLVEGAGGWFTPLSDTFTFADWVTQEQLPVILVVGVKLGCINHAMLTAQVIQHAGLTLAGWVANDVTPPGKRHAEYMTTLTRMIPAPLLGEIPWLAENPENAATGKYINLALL
Chain of UniProt P37440 (P37440 whole entry): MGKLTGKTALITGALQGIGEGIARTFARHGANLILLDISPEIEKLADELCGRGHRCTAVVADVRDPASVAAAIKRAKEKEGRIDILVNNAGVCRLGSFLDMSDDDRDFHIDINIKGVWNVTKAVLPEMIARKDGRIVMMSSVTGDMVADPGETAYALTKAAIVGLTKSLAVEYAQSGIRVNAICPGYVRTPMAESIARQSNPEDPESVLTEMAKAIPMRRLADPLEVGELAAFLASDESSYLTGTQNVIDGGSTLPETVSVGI
Chain of UniProt P15640 (P15640 whole entry): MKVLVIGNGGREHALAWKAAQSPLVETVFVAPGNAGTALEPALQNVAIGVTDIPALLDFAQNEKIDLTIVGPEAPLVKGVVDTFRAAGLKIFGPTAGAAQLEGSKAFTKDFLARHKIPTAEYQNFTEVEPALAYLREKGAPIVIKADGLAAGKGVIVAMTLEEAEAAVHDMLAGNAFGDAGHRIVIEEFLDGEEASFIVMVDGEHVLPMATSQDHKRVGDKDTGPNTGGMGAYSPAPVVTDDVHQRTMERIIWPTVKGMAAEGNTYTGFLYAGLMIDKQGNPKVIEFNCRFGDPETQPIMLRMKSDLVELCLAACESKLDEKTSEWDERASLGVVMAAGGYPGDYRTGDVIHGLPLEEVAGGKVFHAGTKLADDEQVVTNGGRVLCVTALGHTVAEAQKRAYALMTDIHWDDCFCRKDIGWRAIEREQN
Chain of UniProt P37647 (P37647 whole entry): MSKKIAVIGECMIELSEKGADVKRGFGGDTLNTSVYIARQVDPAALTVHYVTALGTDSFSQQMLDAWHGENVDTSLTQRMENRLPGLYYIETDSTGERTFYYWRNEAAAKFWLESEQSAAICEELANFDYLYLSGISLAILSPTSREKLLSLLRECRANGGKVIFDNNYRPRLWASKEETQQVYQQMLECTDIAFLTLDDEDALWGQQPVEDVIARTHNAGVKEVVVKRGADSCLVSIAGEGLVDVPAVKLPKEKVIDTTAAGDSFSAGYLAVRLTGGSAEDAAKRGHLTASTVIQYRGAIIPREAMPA
Chain of UniProt P09980 (P09980 whole entry): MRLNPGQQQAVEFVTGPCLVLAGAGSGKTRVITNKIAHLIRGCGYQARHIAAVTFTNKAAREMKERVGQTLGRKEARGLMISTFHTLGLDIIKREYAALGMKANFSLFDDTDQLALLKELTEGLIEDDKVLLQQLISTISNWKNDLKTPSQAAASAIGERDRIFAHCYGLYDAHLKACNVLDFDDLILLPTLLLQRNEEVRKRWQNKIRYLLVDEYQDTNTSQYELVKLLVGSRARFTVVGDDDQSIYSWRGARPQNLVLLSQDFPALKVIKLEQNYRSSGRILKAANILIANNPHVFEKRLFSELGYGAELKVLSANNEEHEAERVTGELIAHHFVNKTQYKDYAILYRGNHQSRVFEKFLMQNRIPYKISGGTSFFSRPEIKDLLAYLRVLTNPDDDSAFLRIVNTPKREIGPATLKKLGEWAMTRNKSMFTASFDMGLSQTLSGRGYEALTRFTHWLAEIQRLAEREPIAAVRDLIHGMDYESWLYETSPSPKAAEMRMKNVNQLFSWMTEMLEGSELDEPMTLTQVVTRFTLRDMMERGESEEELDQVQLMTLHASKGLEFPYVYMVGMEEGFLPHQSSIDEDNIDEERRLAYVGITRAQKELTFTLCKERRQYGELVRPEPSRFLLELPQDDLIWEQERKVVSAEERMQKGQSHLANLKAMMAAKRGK
Chain of UniProt P0ACL0 (P0ACL0 whole entry): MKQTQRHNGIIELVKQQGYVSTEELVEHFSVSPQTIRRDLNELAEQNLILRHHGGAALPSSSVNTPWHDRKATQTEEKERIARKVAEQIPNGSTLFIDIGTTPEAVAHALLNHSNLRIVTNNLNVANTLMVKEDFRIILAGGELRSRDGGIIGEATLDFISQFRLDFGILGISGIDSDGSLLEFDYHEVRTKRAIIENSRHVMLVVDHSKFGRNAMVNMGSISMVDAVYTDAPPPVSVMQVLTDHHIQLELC
Chain of UniProt P03018 (P03018 whole entry): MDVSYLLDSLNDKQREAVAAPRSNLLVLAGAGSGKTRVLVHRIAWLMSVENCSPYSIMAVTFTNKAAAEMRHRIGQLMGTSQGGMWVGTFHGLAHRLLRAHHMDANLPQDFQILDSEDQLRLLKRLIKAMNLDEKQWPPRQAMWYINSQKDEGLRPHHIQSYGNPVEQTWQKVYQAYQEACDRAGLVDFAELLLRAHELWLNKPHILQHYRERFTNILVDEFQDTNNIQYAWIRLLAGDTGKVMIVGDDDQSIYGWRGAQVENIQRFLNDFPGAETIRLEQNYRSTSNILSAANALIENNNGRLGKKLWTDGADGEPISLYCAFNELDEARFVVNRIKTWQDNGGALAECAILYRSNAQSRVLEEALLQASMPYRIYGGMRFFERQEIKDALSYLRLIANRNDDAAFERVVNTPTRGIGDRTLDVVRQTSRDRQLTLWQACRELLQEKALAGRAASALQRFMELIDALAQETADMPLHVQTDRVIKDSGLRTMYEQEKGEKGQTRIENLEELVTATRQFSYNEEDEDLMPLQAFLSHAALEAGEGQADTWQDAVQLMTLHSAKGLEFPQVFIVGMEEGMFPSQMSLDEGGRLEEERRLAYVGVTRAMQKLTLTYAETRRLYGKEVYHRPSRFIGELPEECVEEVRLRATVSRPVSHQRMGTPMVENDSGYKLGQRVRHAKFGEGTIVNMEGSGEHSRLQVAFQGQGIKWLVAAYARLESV
Chain of UniProt P31142 (P31142 whole entry): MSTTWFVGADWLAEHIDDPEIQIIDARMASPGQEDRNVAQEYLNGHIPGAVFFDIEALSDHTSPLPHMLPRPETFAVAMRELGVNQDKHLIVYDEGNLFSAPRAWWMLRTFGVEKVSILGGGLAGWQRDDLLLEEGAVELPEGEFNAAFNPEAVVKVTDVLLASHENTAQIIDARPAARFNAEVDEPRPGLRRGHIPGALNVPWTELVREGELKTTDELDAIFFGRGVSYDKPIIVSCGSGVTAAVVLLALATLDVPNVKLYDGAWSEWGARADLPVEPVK
Chain of UniProt P24193 (P24193 whole entry): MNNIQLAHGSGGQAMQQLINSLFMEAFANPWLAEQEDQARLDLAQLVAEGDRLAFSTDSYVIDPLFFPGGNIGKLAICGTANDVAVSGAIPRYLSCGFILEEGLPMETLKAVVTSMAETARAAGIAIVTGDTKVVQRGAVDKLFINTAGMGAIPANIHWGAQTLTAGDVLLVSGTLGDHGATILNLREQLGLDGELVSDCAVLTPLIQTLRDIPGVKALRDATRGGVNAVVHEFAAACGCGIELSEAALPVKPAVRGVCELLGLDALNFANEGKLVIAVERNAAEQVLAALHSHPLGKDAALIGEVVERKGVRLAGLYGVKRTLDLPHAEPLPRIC
Chain of UniProt P0AAB8 (P0AAB8 whole entry): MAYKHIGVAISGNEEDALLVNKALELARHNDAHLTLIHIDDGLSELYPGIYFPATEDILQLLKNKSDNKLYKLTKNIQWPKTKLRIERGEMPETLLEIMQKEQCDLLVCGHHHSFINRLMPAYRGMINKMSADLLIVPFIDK
Chain of UniProt P30176 (P30176 whole entry): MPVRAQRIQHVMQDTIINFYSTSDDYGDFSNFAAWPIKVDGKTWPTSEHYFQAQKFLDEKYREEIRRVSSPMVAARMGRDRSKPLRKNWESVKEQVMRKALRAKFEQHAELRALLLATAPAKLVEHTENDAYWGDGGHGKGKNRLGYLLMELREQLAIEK

Nc1ncnc2c1ncn2[C@@H]1O[C@H](COP(=O)(O)OP(=O)(O)OP(=O)(O)O)[C@@H](O)[C@H]1O [adenosine 5'-triphosphate]
Conditions	pEC50 of peptide local stability change
[1]	4.06
[2]	3.76
[3]	3.72
[4]	3.39
[5]	3.79
[6]	3.74
[7]	3.89
[8]	3.07
[9]	2.64
[10]	3.67
[11]	4.4
[12]	3.5
[13]	4.87
[14]	3.86
[15]	2.73
[16]	4.35
[17]	3.21
[18]	2.53
[19]	3.82
[20]	4.44
[21]	3.24
[22]	3.32
[23]	4.14
[24]	3.82
[25]	3.36
[26]	3.7
[27]	2.71
[28]	3.42
[29]	2.72
[30]	4.01
[31]	3.1
